Columns and labels:
Test in all cases: KINOMEscan competition binding
Settings in all cases: compound 10.0 µM
[1] = system: ABL1 (human), P00519 [H396P]
[2] = system: ABL1 (human), P00519 [Y253F]
[3] = system: EGFR (human), P00533 [747-751 del / S ins]
[4] = system: EGFR (human), P00533 [752-759 del]
[5] = system: EGFR (human), P00533 [T790M/L858R]
[6] = system: FLT3 (human), P36888 [D835H]
[7] = system: KIT (human), P10721 [L576P]
[8] = system: KIT (human), P10721 [V559D/V654A]
[9] = system: MET (human), P08581 [Y1235D]
[10] = system: RET (human), P07949 [M918T]
Sequence of RET (human), P07949 [M918T] (P07949 whole entry M918T, looked up): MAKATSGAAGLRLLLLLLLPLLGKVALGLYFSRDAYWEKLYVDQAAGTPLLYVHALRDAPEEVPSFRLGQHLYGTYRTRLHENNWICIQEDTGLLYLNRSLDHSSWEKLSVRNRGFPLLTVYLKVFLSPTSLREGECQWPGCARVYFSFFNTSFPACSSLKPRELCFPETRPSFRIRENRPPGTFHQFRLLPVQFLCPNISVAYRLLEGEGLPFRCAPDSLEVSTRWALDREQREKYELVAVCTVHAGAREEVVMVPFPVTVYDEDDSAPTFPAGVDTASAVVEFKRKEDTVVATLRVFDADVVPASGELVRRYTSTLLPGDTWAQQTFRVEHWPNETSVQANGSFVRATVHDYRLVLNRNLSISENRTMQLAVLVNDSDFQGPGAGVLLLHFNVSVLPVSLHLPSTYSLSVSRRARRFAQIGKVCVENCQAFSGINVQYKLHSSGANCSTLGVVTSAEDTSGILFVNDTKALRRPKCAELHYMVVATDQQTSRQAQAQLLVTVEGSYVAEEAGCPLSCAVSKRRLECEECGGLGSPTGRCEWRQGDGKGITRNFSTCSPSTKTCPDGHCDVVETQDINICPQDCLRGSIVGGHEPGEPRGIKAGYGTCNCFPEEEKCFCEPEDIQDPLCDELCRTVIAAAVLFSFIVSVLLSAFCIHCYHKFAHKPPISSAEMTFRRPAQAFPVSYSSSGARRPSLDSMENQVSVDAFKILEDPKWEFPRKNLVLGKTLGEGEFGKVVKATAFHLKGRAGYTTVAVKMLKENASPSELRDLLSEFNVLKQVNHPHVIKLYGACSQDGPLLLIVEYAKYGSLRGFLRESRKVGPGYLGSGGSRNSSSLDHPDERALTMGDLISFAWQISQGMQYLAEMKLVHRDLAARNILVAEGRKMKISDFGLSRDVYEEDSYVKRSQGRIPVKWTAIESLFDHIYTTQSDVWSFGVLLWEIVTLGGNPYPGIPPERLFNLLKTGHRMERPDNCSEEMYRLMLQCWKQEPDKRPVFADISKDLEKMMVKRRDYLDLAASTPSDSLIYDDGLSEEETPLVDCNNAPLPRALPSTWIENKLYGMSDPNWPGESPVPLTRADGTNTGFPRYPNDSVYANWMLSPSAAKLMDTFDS

[11] = system: RET (human), P07949 [V804M]
Sequence of RET (human), P07949 [V804M] (P07949 whole entry V804M, looked up): as the sequence (P07949 whole entry M918T, looked up) above, with V804M, T918M counted along it

[12] = system: EGFR (human), P00533 [T790M]
[13] = system: FLT3 (human), P36888 [R834Q]

Sequence of KIT (human), P10721 [V559D/V654A] (P10721 whole entry V559D/V654A, looked up): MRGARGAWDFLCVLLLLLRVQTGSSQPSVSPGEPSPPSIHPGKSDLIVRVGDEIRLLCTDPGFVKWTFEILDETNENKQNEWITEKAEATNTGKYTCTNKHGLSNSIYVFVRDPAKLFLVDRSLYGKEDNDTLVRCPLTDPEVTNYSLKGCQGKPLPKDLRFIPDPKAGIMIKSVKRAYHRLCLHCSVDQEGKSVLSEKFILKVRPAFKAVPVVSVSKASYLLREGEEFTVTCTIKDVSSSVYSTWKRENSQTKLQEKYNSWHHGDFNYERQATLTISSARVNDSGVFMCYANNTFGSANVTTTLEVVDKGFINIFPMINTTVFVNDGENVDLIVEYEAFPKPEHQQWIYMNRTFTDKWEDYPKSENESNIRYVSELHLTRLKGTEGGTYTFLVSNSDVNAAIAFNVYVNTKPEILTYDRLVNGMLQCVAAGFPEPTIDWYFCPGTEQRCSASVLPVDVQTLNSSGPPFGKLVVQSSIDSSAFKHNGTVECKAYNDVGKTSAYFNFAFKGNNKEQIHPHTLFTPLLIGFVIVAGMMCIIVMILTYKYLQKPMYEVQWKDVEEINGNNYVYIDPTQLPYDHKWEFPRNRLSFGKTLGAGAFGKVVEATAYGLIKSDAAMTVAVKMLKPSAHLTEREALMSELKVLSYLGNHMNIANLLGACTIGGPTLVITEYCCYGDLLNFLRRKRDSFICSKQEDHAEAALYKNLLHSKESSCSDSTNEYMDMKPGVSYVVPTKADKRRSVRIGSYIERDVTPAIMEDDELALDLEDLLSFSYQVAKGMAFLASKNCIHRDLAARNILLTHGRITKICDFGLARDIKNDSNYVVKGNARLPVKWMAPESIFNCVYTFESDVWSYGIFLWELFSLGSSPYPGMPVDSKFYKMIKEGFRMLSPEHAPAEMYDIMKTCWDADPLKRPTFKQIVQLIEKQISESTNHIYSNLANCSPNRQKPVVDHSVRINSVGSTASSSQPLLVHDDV
Sequence of KIT (human), P10721 [L576P] (P10721 whole entry L576P, looked up): as the sequence (P10721 whole entry V559D/V654A, looked up) above, with D559V, L576P, A654V counted along it

Compound | kinase still bound, per cent of control [1] | kinase still bound, per cent of control [2] | kinase still bound, per cent of control [3] | kinase still bound, per cent of control [4] | kinase still bound, per cent of control [5] | kinase still bound, per cent of control [6] | kinase still bound, per cent of control [7] | kinase still bound, per cent of control [8] | kinase still bound, per cent of control [9] | kinase still bound, per cent of control [10] | kinase still bound, per cent of control [11] | kinase still bound, per cent of control [12] | kinase still bound, per cent of control [13]
OCCCNc1cc(-c2ccnc(Nc3cccc(Cl)c3)n2)ccn1 | 100% | 100% | 100% | 100% | 100% | 100% | 100% | 100% | 100% | 100% | 100% | – | –
CC[C@@H]1C(=O)N(C)c2cnc(Nc3ccc(C(=O)NC4CCN(C)CC4)cc3OC)nc2N1C1CCCC1 | 100% | 100% | – | – | – | 100% | – | 100% | – | 100% | 100% | – | –
C=CC(=O)Nc1cccc(Oc2nc(Nc3ccc(N4CCN(C)CC4)cc3OC)ncc2Cl)c1 | 100% | 100% | 0% | 0.25% | – | 4% | – | 100% | – | 100% | 100% | – | –
COc1cc(N2CCC(C(N)=O)CC2)ccc1Nc1nc(N)c(Cl)c(Nc2ccccc2S(=O)(=O)C(C)C)n1 | 100% | 100% | 0.75% | 1.2% | – | 11% | – | 100% | – | 100% | 100% | – | –
CCCS(=O)(=O)Nc1ccc(F)c(C(=O)c2c[nH]c3ncc(Cl)cc23)c1F | – | 27% | 75% | 73% | 90% | 43% | 6.4% | 19% | 100% | 40% | 89% | 48% | 100%
COc1ccc(N(C(=O)Oc2cc(C(=O)Nc3cccc(C(F)(F)F)c3)ccc2C)c2ccnc(Nc3ccc(N4CCN(C)CC4)cc3)n2)c(OC)c1 | 3.6% | 1.3% | 0.4% | 0.9% | – | 100% | – | 9% | – | 0.3% | – | – | –
Cc1cc([C@@H](C)Nc2ccccc2C(=O)O)c2nc(N3CCOCC3)cc(=O)n2c1 | – | 100% | 100% | 100% | 99% | 27% | 95% | 96% | 78% | 100% | 100% | 100% | 94%
COc1cc(C(=O)NC2CCN(C)CC2)ccc1Nc1ncc2c(n1)N(C1CCCC1)C(C)CC(=O)N2C (configuration not stated) | 100% | 100% | 100% | 100% | – | 100% | – | 100% | – | 100% | 100% | – | –
O=C(NC1CC1)c1cccc(-c2ccc3c(NC(=O)C4CC4)n[nH]c3c2)c1 | – | 60% | 74% | 72% | 100% | 47% | 51% | 90% | 74% | 71% | 84% | 100% | 67%
C=CC(=O)Nc1cccc(Nc2nc(N[C@H]3CC[C@H](N(C)C)CC3)nc3c2ncn3C(C)C)c1 | – | 62% | 90% | 82% | 100% | 5.4% | 33% | 44% | 100% | 100% | 71% | 68% | 8.4%
CC1=C(C(=O)Nc2cc3cn[nH]c3cc2F)C(c2ccc(C(F)(F)F)cc2)CC(=O)N1 (configuration not stated) | – | 72% | 81% | 90% | 87% | 76% | 93% | 92% | 65% | 15% | 43% | 40% | 77%
C=CC(=O)Nc1ccc(C(=O)c2sc(Nc3ccc(N4CCN(C)CC4)cc3OC)nc2N)cc1 | – | 97% | 41% | 53% | 68% | 59% | 81% | 100% | 100% | 100% | 100% | 27% | 100%
CCc1nc(-c2cccc(C)c2)c(-c2ccnc(NC(=O)c3ccccc3)c2)s1 | 3% | 26% | – | – | – | – | 51% | – | – | 72% | 94% | – | –
Cc1ccc(C(=O)Nc2cccc(C(F)(F)F)c2)cc1Nc1cncc(C(N)=O)c1 | 100% | 100% | 100% | 100% | – | 100% | – | 18% | – | 100% | 100% | – | –
Cn1c(=O)n(-c2ccc(C(C)(C)C#N)cc2)c2c3cc(-c4cnc5ccccc5c4)ccc3ncc21 | 100% | 100% | 100% | 100% | 100% | 21% | 100% | 100% | – | 100% | 100% | – | –
Nc1ccc(-c2ccc3ncc4ccc(=O)n(-c5cccc(C(F)(F)F)c5)c4c3c2)cn1 | – | 87% | 67% | 70% | 100% | 16% | 51% | 100% | 98% | 79% | 100% | 100% | 32%
COc1cc(C)c(Sc2cnc(NC(=O)c3ccc(CNC(C)C(C)C)cc3)s2)cc1C(=O)N1CCN(C(C)=O)CC1 (configuration not stated) | 100% | 100% | 100% | 100% | – | 14% | – | 100% | – | 32% | 100% | – | –
C=CC(=O)Nc1cc(NC(=O)c2ccc(C)c(NC(=O)c3ccno3)c2)cc(C(F)(F)F)c1 | – | 63% | 100% | 100% | 97% | 100% | 2.3% | 23% | 100% | 100% | 100% | 100% | 100%
CCN1CCN(Cc2ccc(Nc3ncc4c(n3)N(C)c3ccccc3C(=O)N4C)cc2C(F)(F)F)CC1 | – | 0.1% | 95% | 98% | 90% | 8.8% | 46% | 100% | 86% | 0.6% | 1.2% | 100% | 69%
